Assay [1] relates to E. coli DSMZ 1103. As to the kind of experiment: Fractional Inhibitory Concentration Index (FIC) / MIC, 96-well broth dilution of ingredient combinations. The class given is cell-based, Escherichia coli. Conditions: for MIC: Escherichia coli, DSMZ1103, 24 h, read-out: Concentration of ingredient alone (Minimal Inhibitory Concentration, MIC alone); for FIC: ingredient alone at its MIC. The method, then: (§1) The method below allows evaluating antimicrobial activity of different raw materials in combination. The Fractional Inhibitory Concentration Index (FIC Index) is a measure of activity (Garcia L. S., Clinical Microbiology Procedures Handbook, pg. 140-162, 3rd Edition (2010), ASM Press, Washington D.C.) and is calculated according to the formula below:
(§2) [formula] where (MICA alone) and (MICB alone) are the Minimal Inhibitory Concentrations (MIC) of individual ingredients A and B when used in isolation, respectively; whereas (MICA combination) and (MICB combination) are the Minimal Inhibitory Concentrations of materials A and B when tested in combination. Ingredient A corresponds to nona-2,6-dien-1-ol and ingredient B stands for 3-neopentylpyridine, 2-methylhexan-3-one oxime, terpineol or 2-isopropyl-5-methylphenol.
(§3) The Minimal Inhibitory Concentration of a material is defined as the lowest concentration of an agent which can inhibit visible bacterial growth (CLSI M08-A8 Methods for dilution Antimicrobial Susceptibility Test for Bacteria That Grow Aerobically; Approved Standard-Eighth Edition).
(§4) Bacterial suspensions of E. coli DSMZ 1103 and S. aureus DSMZ 1104 were prepared as follows: a frozen stock aliquot was streaked on a Tryptic Soy Agar plate, which was then incubated at 37° C. for 24 hours. A single bacterial colony was picked and inoculated into 50 ml of Mueller Hinton Broth contained in a 100 ml-flask. Incubation was performed overnight at 37° C., under agitation (160 rpm). The following day, the overnight culture was diluted into 50 ml of fresh Mueller Hinton Broth at 1:50 and 1:100 for S. aureus and E. coli, respectively. Growth at 37° C. was continued as described above until the absorbance measured at 600 nm reached 0.7-0.9 and 0.3-0.45 for S. aureus and E. coli, respectively. At this point, cells were harvested by centrifugation (10 min—5000×g—4° C.) and suspended in fresh Mueller Hinton Broth at a concentration of 1×10^8 CFU/ml.
(§5) Solutions of raw materials under evaluation (ingredients A and B) were prepared in ethanol and then serially diluted in the desired concentration into 96-well microtiter plates (10 μl per well). Columns 1, 10, 11 and 12 received only 10 μl ethanol without any testing material. The final concentration of ethanol was 5% w/v for all wells.
(§6) Then, 90 μl of cell suspension as prepared above were added to each well of the microtiter plate, with the exception of column 12 which received 90 μl of Mueller Hinton Broth. The final volume of each well was brought to 200 μl with Mueller Hinton Broth. Each plate was sealed and incubated at 37° C. for 24 hours, under agitation (160 rpm). After incubation, plate reading was performed visually by recording wells with visible bacterial growth. Each combination of materials was tested in triplicate. Turbidity due to potential precipitation of raw materials was taken into account by scoring plates containing identical raw material concentrations, without bacteria.
For orientation: In broth dilution the organism is exposed to a series of concentrations in liquid medium.

The subject of assay [2] is S. aureus DSMZ 1104. The assay is described as above. It counts as cell-based, Staphylococcus aureus. Conditions: for MIC: Staphylococcus aureus, DSMZ1104, 24 h, read-out: Concentration of ingredient alone (Minimal Inhibitory Concentration, MIC alone); for FIC: ingredient alone at its MIC. The method, then: as §1, §2, §3, §4, §5, §6
The test system of assay [3] is C. xerosis ATCC 373. As to the kind of experiment: BCT test in 90% roll-on deodorant base. It counts as cell-based, Corynebacterium xerosis. Conditions: Table 25: single material 0.216% in 90% roll-on deodorant base, contact time 120 sec. The procedure: Bacterial solution of C. xerosis ATCC 373 strain was prepared for BCT test as follows. Stock cultures stored at −80° C. were subcultured onto Tryptic Soy Agar media with 0.5% Tween 80 (TSA-TW80), and incubated at 37° C. for 48 h. The primary cultures were subcultured onto TSA-TW80 again to prepare the secondary cultures. Single colonies of secondary culture were inoculated into 30 ml of Brain Heart Infusion (BHI) broth with 0.5% Tween 80 (BHI-TW80), and incubated at 37° C. 180 rpm for 24 h. Aliquots (1 ml) of the 24 h culture were inoculated into 30 ml of fresh BHI-TW80 broth, and incubated at 37° C. 180 rpm for 48 h. Aliquots (2-3 ml) of the 48 h culture were inoculated into four 50 ml of fresh BHI-TW80 broth medium, and incubated at 37° C. 180 rpm for 4-6 hrs. When the OD reached the target value of 1.6, cells were harvested by centrifugation at 5000 rpm for 10 min, and then resuspended in the same fresh broth media to a target concentration of 10^9 to 10^10 cfu/mL. This suspension was used as the bacterial solution for the BCT test.
Test samples of base with synergistic binary mixtures were prepared as follows. Raw materials of the synergistic binary mixtures were weighed (Table 22), and mixed with 0.3 g PEG-40 Hydrogenated Castor Oil and 9.57 g deodorant roll on base (Table 23).
BCT tests were performed in 15 ml sample tubes. Aliquots (0.9 g) of each sample were weighed into the tube, and an aliquot of bacterial solution (100 μl) was added to the sample and allowed for a contact time of 120 sec with constant mixing. At the end of the contact time, aliquots (9 ml) of BHI broth were added to the tube. The suspensions were mixed well by vortexing, and further 1:10 serial dilutions were made in […] BHI. Aliquots (1 ml) of BHI dilutions were plated onto duplicate plates of TSA-TW80 using pour plate methods. TSA-TW80 plates were incubated at 37° C. for 2-3 days. After incubation, colonies on TSA-TW80 plates were enumerated and log reduction of each sample were calculated against the CFU counts of the control sample (BHI).

For assay [4], the system named is E. coli DSMZ 1103. Briefly: BCT test in 50% liquid soap base. It counts as cell-based, Escherichia coli. Conditions: Table 21: single material 0.3% in 50% liquid soap base, contact time 45 sec. The method, then:
Bacterial solutions of the two strains, E. coli DSMZ 1103 and S. aureus DSMZ 1104, were prepared for BCT test as follows. Stock cultures stored at −80° C. were sub-cultured onto Tryptic Soy Agar (TSA) agar plate media, and incubated at 37° C. for 24 h to obtain single colonies. Single colonies of the primary cultures were streaked onto TSA slant and incubate it at 37° C. incubator for 24 h. Bacterial lawns of the slant culture were collected in PBS buffer to make suspensions with the target level of 1-5×10^8 CFU/mL. The 1:100 dilution of each cell suspension in PBS buffer was used as the bacterial solutions for the BCT test.
Test samples of base with synergistic binary mixtures were prepared as follows. Raw materials of the synergistic binary mixtures (Table 17) were mixed with the liquid soap base PGK-10-003 (Table 18). Aliquots (2.5 g) of each mixture were weighed into 20 ml glass tube with a stirrer bar, and added with equal amount of MilliQ water to make 50% suspension as the test samples for the BCT test.
BCT tests were performed in the 20 ml sample tubes. Each sample tube with 5 g of 50% sample suspension was placed onto a magnetic stirrer, and an aliquot of bacterial solution (100 μl) was added to the sample and allowed for a contact of 45 sec during mixing. Then aliquots (0.5 ml) of the mixture were transferred into 5 ml PBS, and further serial dilutions were made in 4.5 ml PBS. Aliquots (0.5 ml) of PBS dilutions were plated onto duplicate plates of TSA plates using the pour plate method. TSA plates were incubated at 37° C. for 48 h. After incubation, colonies on TSA plates were enumerated and log reduction of each sample were calculated against the CFU counts of the control sample (MilliQ water).

The mark [5] stands for this setting: ingredient used in isolation, other ingredient 0 ppm, 37° C., 24 hours.

Each structure is given as a SMILES string. Where two headings read alike, the source gives them in different places.

Consider `CC(C)=CCCC(C)=CCO` (stereo in doubt) [(Z)-3,7-Dimethyl-2,6-octadien-1-ol], for which the MIC in assay [1] (setting [5]) was 1200 µg/mL. In addition, in assay [1] (other ingredient 0 ppm), the FIC is listed as 1.000.

For the compound `O=Cc1ccc2c(c1)OCO2` [1,3-Benzodioxole-5-carbaldehyde], the MIC in assay [1] and in assay [2] was 1200 µg/mL each time. For the same compound, the FIC is recorded as 1.000 in assay [1] (other ingredient 0 ppm) and 1.00 in assay [2] (other ingredient 0 ppm).

With `Cc1ccc(C(C)C)c(O)c1` [2-isopropyl-5-methylphenol], the Log reduction in assay [3] worked out at 6.0 log. In assay [1] (setting [5]), the MIC amounted to 600 µg/mL. For the same compound, the FIC in assay [1] (other ingredient 0 ppm) is given as 1.000. For the same compound, the “Average log reduction ± SEM (n = 2)” value in assay [4] stood at 0.4 ± 0.0 log.

On to `CCCC(=NO)C(C)C` [2-methylhexan-3-one oxime], for which the MIC in assay [2] (setting [5]) is 4800 µg/mL. Further, in assay [2] (other ingredient 0 ppm), the FIC worked out at 1.00.

For the compound `CC(C)(C)Cc1cccnc1` [3-neopentylpyridine], the Log reduction in assay [3] is 5.9 log. Besides, in assay [1] (setting [5]), the MIC was found to be 600 µg/mL. The figures for the FIC in assay [1] (other ingredient 0 ppm) and in assay [2] (other ingredient 0 ppm) were 1.000 and 1.00, respectively. Further, in assay [4], the “Average log reduction ± SEM (n = 2)” value came to 0.3 ± 0.2 log.

On to `COc1ccc(C=O)cc1` [4-Methoxybenzaldehyde], for which the MIC in assay [1] (setting [5]) is 1200 µg/mL. The values for the FIC in assay [1] (other ingredient 0 ppm) and in assay [2] (other ingredient 0 ppm) were 1.000 and 1.00, respectively.

On to `CC/C=C\CC/C=C/CO` [(2E,6Z)-nona-2,6-dien-1-ol], for which the Log reduction in assay [3] is on record as 5.7 log. Besides, the figures for the FIC in assay [1] (other ingredient 0 ppm) and in assay [2] (other ingredient 0 ppm) were 1.000 and 1.00, respectively. Also, the “Average log reduction ± SEM (n = 2)” value in assay [4] stood at 0.3 ± 0.2 log.

As for `CC(C)[C@H]1CC[C@@H](CO)CC1` [cis-4(Isopropyl)cyclohexanemethanol], the MIC in assay [1] (setting [5]) was found to be 9600 µg/mL. The FIC in assay [1] (other ingredient 0 ppm) worked out at 1.000.

As for `CC1=CCC(C(C)(C)O)CC1` (stereo not drawn) [α-terpineol], the MIC in assay [2] (setting [5]) worked out at 1200 µg/mL.

The values above are taken from patent publication US11666517B2, “Antimicrobial composition” (Firmenich SA, priority 2016, dated 2023).
